According to paper PMC6936348, “Reactivation of Epstein–Barr virus by a dual-responsive fluorescent EBNA1-targeting agent with Zn^2+-chelating function” (Proceedings of the National Academy of Sciences of the …, 2019):

How the values were obtained:
[1] = system: EBNA1 monomer homodimerization; details: peptide P4; cited from earlier work
Source text: (§1) Epstein–Barr nuclear antigen 1 (EBNA1) is the only viral protein expressed in nearly all forms of EBV latency and its associated cancers which plays a vital role in the maintenance of viral genome ([3]). EBNA1 is also important for the transcriptional activation of some other EBV latency genes ([4]). Homodimerization of EBNA1 is known to be critical for EBNA1–DNA binding and the subsequent functions of oriP (latent origin of replication), including viral DNA replication and segregation, maintenance of the EBV episomal genome, and transcriptional activation ([5]). Thus, EBNA1 not only serves as ...

EBV-infected cells = details: peptide P4; cited from earlier work
Source text: as §1

[2] = system: EBV-positive C666-1 and NPC43 cells; experiment: Two-photon imaging, subcellular localization in EBV-positive cells; format: cell-based; details: 10 µM, 3 h, two-photon λex 700 nm
[3] = system: EBV-positive NPC43, C666-1 and Raji cells; experiment: MTT cytotoxicity, EBV-positive cell panel; format: cell-based; details: 1 to 20 µM, 5 d
[4] = system: Rta, BMRF1, gp350/220 in NPC43 cells; experiment: Western blot of lytic proteins in NPC43; format: cell-based, Epstein–Barr virus; details: 10 µM, 7 d
Source text: Fig. 5. EBV lytic induction analysis of EBV-positive tumors and cells in response to the EBNA1 probes. (A) IHC analysis of lytic proteins Zta, BMRF1, and VCA-p18 in the transplanted C666-1–derived tumor tissues as described in Fig. 4 E–G. Representative results are shown. […] Insets (in the red boxes) are the enlarged images to indicate the cellular localization of the 3 proteins. Negative control staining images are included for the mouse antibodies (mAb) against Zta and BMRF1 and for the rat antibody (rAb) against VCA-p18. Magnification, 400×. […] TPA/NaB (20 ng/mL TPA, 3 mM NaB) serves as a positive control of lytic induction. The presence of these 4 lytic proteins is indicated by red signals. The nuclei were stained with DAPI. […] Acetylated histone H3 (Ac-Histone H3) was also detected. β-actin serves as the loading control. […] The gene expression was analyzed by qRT-PCR. The fold change of relative gene expression after each treatment was compared with the solvent control (DMSO). Data are expressed as the means ± CI.
Western blot analysis of Zta, Rta, BMRF1, and gp350/220 was performed as reported ([41]). The Rta antibody was supplied from Argene (Verniolle) and the β-actin antibody for loading control was supplied from Cell Signaling Technology. Antibodies against Zta, BMRF1, gp350/220, Dicer1, and PML were the ones used for IF staining. A 1:400 dilution of the primary antibodies was used.

[5] = Fluorescence response toward Zn2+; format: binding; details: 2 µM probe, excitation 337 nm
HeLa xenograft = details: 4 μg/injection every three days, 19 days, vs control
C666-1 xenograft = experiment: C666-1 xenograft, intratumoral injection; details: 4 µg per injection twice weekly, 18 d, n = 5
[6] = system: infectious EBV particles from HONE-1-EBV cells; experiment: EBV infection assay (Raji cell assay, virions from HONE-1-EBV); format: cell-based, Epstein–Barr virus; details: 10 µM, 4 d, triplicate, P = 0.009 (ZRL5P4), P = 0.06 (ZRL5P2)
[7] = target: the molecule itself; experiment: self-association assay read by SDS-PAGE and anti-His Western blot

For CAhxYFMVFGGRrRK [P4], the EBNA1 homodimerization [1] is listed as “able to interfere with the homodimerization of the EBNA1 monomer” and the EBV-infected cell growth (EBV-infected cells) is listed as “suppress EBV-infected cell growth”.

In the case of “YFMVF [ZRL5P2, rest of structure identical to ZRL5P4; negative control]”, the Subcellular localization [2] is reported as “only found in the cytoplasm”, the “Growth-inhibitory effect, comparison” value [3] is reported as “the least efficient one” and the “Rta and BMRF1 expression” value [4] is reported as “much weaker than those of ZRL5P4”. The “Emission change upon addition of Zn2+” value ([5]; 2 equiv. Zn2+, CH3CN/0.05 M Hepes pH 7.4, 50:50) was “slightly blue-shifted emission”, the “Maximum emission wavelength, without Zn2+” value ([5]; CH3CN/0.05 M Hepes pH 7.4, 50:50, absence of Zn2+) was 448 nm and the “Maximum emission wavelength, with Zn2+” value ([5]; CH3CN/0.05 M Hepes pH 7.4, 50:50, presence of Zn2+) was 445 nm. For the same molecule, the Body weights (HeLa xenograft) was “did not cause any significant changes in body weights”, the Tumor growth (C666-1 xenograft) was “did not significantly affect tumor growth” and the “Virion production versus DMSO control” value [6] was 2.6 fold.

B1: Full-length EBNA1 (residues 1 to 641) with an N-terminal His tag (ab138345; Abcam) (natural protein)
chain: MSDEGPGTGPGNGLGEKGDTSGPEGSGGSGPQRRGGDNHGRGRGRGRGRGGGRPGAPGGSGSGPRHRDGVRRPQKRPSCIGCKGTHGGTGAGAGAGGAGAGGAGAGGGAGAGGGAGGAGGAGGAGAGGGAGAGGGAGGAGGAGAGGGAGAGGGAGGAGAGGGAGGAGGAGAGGGAGAGGGAGGAGAGGGAGGAGGAGAGGGAGAGGAGGAGGAGAGGAGAGGGAGGAGGAGAGGAGAGGAGAGGAGAGGAGGAGAGGAGGAGAGGAGGAGAGGGAGGAGAGGGAGGAGAGGAGGAGAGGAGGAGAGGAGGAGAGGGAGAGGAGAGGGGRGRGGSGGRGRGGSGGRGRGGSGGRRGRGRERARGGSRERARGRGRGRGEKRPRSPSSQSSSSGSPPRRPPPGRRPFFHPVGEADYFEYHQEGGPDGEPDVPPGAIEQGPADDPGEGPSTGPRGQGDGGRRKKGGWFGKHRGQGGSNPKFENIAEGLRALLARSHVERTTDEGTWVAGVFVYGGSKTSLYNLRRGTALAIPQCRLTPLSRLPFGMAPGPGPQPGPLRESIVCYFMVFLQTHIFAEVLKDAIKDLVMTKPAPTCNIRVTVCSFDDGVDLPPWFPPMVEGAAAEGDDGDDGDEGGDGDEGEEGQE
notes: source: bought: Abcam (ab138345); not shown: His tag, N-terminal, kept
In the case of B1, the “stoichiometry N” value [7] is reported as 2.
